Data: patent publication US7803764B2, “Amphipathic glycopeptides” (The Arizona Board of Regents on Behalf of the University of …, priority 2004, dated 2010)
Entries after “also recorded” stand apart in the source; their conditions may differ.

Experiments:
δ opioid receptor = δ opioid receptor (Homo sapiens, UniProt P41143); experiment: opioid receptor binding, δ receptor
μ opioid receptor = μ opioid receptor (Homo sapiens, UniProt P35372); experiment: opioid receptor binding, μ receptor
[1] = in vivo antinociception after i.c.v. administration; parameters: species or system mice; conditions: i.c.v., mice, antinociception
[2] = Plasmon-waveguide resonance (PWR) binding to lipid bilayer; conditions: egg PC bilayer, 25° C., read-out: dissociation constant KD for lipid bilayer
Procedure: Plasmon-waveguide resonance (PWR) spectroscopy. The PWR instrument used for these experiments was Aviv Beta prototype version device obtained from Proterion Corp. (Piscataway, N.J.) having a spectral resolution of 1 millidegree. Self-assembled so lid-supported lipid membranes were prepared according to the method used for the formation of freely suspended lipid bilayers.^62 This involves spreading a small amount of lipid solution across an orifice in a Teflon sheet that separates the thin dielectric film (SiO2) from the aqueous phase. The hydrophilic surface of hydrated SiO2 attracts the polar groups of the lipid molecules, thus inducing an initial orientation of the lipid molecules, with the hydrocarbon chains pointing toward the droplet of excess lipid solution. The next steps of bilayer formation, induced by adding aqueous buffer to the sample compartment of the PWR cell, involve a thinning process and the formation of a plateau-Gibbs border of lipid solution that anchors the membrane to the Teflon spacer. In the present experiments, the lipid films were formed from a solution containing 5 mg/ml egg phosphatidylcholine (PC) in squalene/butanol/methanol (0.05:9.5:0.5, v/v). […] Aliquots of the glycosylated peptides, dissolved in deionized water, were injected stepwise in the PWR cell sample and the signal monitored until equilibrium was reached (PWR signal steady). […]

[3] = helicity by circular dichroism; format: physicochemical
Procedure: Circular Dichroism. All of the circular dichroism experiments were carried out on Aviv Associates model 60DS using an Endcal Model RTE4DD water circulator as a temperature-control vehicle. The instrument was calibrated by using d-10-camphorsulphonic acid. The spectra were recorded between 200 and 250 nm by using the continuous mode with a 1.5 nm bandwidth, a three second response and a scan step of 0.5 nm in a cell with a path length of 0.1 cm. Three or five scans were accumulated and averaged for each spectrum. Glycopeptide stock solutions were prepared by weighing the required amount, using Cahn/Ventron Instruments Model 21 automatic analytical electrobalance, to make 1 mL of a 0.5-1.0 mM solution and the pH was adjusted to the desired value. Samples were prepared by diluting the stock solution to 70-80 μM. All observed spectra were baseline-subtracted and smoothed by adjacent average of 5 points using Microcal Origin Ver. 5.0 software (Microcal Software Inc, USA). The molar ellipticities were determined using the formula [θ]=[θ]obs·(MRW)/10·l·C, where [θ]obs observed ellipticity in millidegrees, MRW is the mean residue weight, l is the cell path length in centimeters and C is the glycopeptide concentration in mg/mL. The percent α-helicity was determined by using the formula % helix=[θ]n→π*/−40,000 (1−2.5/n)·100, where n represents the number of amide bonds (including the C-terminal amide) in the glycopeptide and [θ]n→π** is molar ellipticity of n→π* transition band at 222 nm.^55
Conformational Analysis by CD. Circular dichroism (CD) is a powerful and simple tool for identifying secondary structure in both peptides and proteins.^64 All the peptides were subjected to CD analysis in H2O, TFE-H2O mixtures, SDS micelles and phospholipid bicelles. In H2O, a negative band near 200 nm is observed that arises from the π→π* electronic transition and is typical of random coil peptides. […] This behavior is explained as nascent helices.^65 In these nascent helices, helix CD signals could be induced by the addition of TFE.^66 All the glycopeptides gave an increased helix CD signal in TFE. The percentage of helicity increases as TFE concentration increases, but reached a maximum at 30% TFE. The increase in helicity in TFE can be attributed to decreased competition by H2O for hydrogen bonding to the backbone amides. […] In the presence of SDS micelles and anionic bicelles, the band at 200 nm underwent a red shift (higher value) and an additional shoulder appears around 222 nm as a result of the n→π* transition. […] The negative maxima at 222 nm (n→π* transition band) is used to calculate the helical content of polypeptides and proteins. The accepted value for a peptide that is 100% helical is approximately −35,000. It was observed that changes in amplitude of the bands up to 30% depend on length of helix.^67 The amplitude increases as α-helical chain length increases. Therefore, one has to consider the importance of chain-length dependence of the α-helix CD in the quantitative treatment of helix content in proteins and polypeptides. The percentage of helicity is independent of SDS concentration and pH (data not shown). In the presence of zwitterionic bicelles all of the glycopeptides yielded CD spectra similar to that observed in H2O, but anionic bicelles forced them to become more helical. The intensities of the [θ]π→π* band and the [θ]n→π* band are expected to be almost equal for a perfect α-helical peptide. […] A modest blue shift and reduced intensity for the [θ]n→π* transition bands are observed for all the glycopeptides in TFE. […] The glycopeptides 9 (Pro/Glc) and 12 (Pro/Lactose), which differ only by the sugar moiety attached, adopt perfect helices in the presence of SDS micelles and in anionic bicelles. The disaccharide increased the percentage of helicity in all the solvents, relative to the monosaccharide. […] It is remarkable to note that a single amino acid mutation at position 6 produced profound changes in the CD spectra. […]

[4] = helicity by NMR αCH chemical shift index; format: physicochemical
Procedure: NMR Spectroscopy. All NMR spectra were recorded on a Bruker DRX600 600 MHz spectrometer. Glycopeptide concentration for the NMR experiments varied from 2-3 mM. The glycopeptides were prepared in TFE-water solution by dissolving the peptide in 0.6 ml solution of a premixed 30% TFE-water mixture. The micelle samples were prepared by dissolving the glycopeptide and 100 equivalent of perdeuterated SDS in 0.6 ml of H2O/D2O (9:1 ratio by volume). Bicelles were produced from deuterated phospholipids. The zwitterionic bicelles were made by mixing the short chain phospholipid dihexanoyl-sn-glycero-3-phosphatidylcholine-d22 (DHPC) and the long chain 1,2-dimyristoyl-sn-glycero-3-phosphatidylcholine-d54 (DMPC) in the molar ratio of 2:1 in H2O. The […] were prepared by substituting 10 mol % of 1,2-dimyristoyl-sn-glycero-3-phospho-1-glycerol-d54 (DMPG) for DMPC. The glycopeptide to bicelle ratio was 1:25. After the glycopeptide was added to the bicelle solution, the system was submitted to a series o f three freeze/thaw/slight vortex shaking cycles. The pH of the each sample was adjusted to 4.5 by using DCl or NaOD as necessary. TSP (3-(trimethylsilyl)-d4-propionic acid) was added as an internal standard. The experiments in F3CCD2OD/H2O mixtures were at 293 K and for experiments in micelles/bicelles were at 298 or 311 K. Two-dimensional double quantum filtered correlation (DQF-COSY), rotating-frame Overhauser enhancement^56 (ROESY), Nuclear Overhauser enhancement^57 (NOESY), and total correlation spectra^58 (TOCSY) were acquired using standard pulse sequences and processed using XWINNMR (Bruker Inc) and FELIX2000 (Accelrys Inc, San Diego, Calif.), Mixing times for TOCSY spectra were either 80 or 100 ms. Mixing times for ROESY spectra were 150 or 250 ms, and for NOESY spectra were 200 or 300 ms. All experiments were 750 increments in t1, 16/32/64 scans each, 1.5 s relaxation delay, size 2 or 4K, and the spectral processing was with shifted sine bell window multiplications in both dimensions.
αCH Chemical Shift Index. […] At this point there is no accepted random coil αCH values for glycosylated serine, CSI values for this position are uncertain. The conformational shift values for all solvents were obtained using the random coil values described by Wright and co-workers.^72 Although, these reference shifts were obtained at pH=5.0 at 4.2° C., they appear to be very insensitive to the conditions, as very small deviations (±0.04) were observed when random coil values are obtained at pH=7.0 at 35° C. by Wuthrich and co-workers.^68 The quantification of secondary structure based on αCH chemical shifts is neglected in the literature because various contributions cannot be strictly accounted for, such as electrostatic effects, ring current shifts, and other magnetic anisotropies. However, it is possible to make qualitative comparison of helical content between closely related (glyco)peptides. Since the 3rd generation glycopeptides differ by only one amino acid at position 6, the helical content was obtained based on the αCH chemical shift values (Table 3). The method described by Gierasch and co-workers^69a was used. First, the average conformational shift was calculated for each glycopeptide by adding all upfield shifts in the helical regions and dividing by the total number of peptide bonds. Then, to obtain the overall helical content for each glycopeptide, the average conformational shift was divided by 0.35 ppm, which was assigned for 100% helicity. Since, there are no random coil values available for β-Alanine and glycosylated serine residues, they were not included in the calculation. The helicogenic Aib residue lacks an α-proton, and there was no correction included in the calculation for the helicity provided by Aib residue. The helical content obtained by this method correlated with the helical content obtained by CD. […]

[5] = blood-brain barrier uptake / penetration; conditions: mice

Chain of δ opioid receptor (P41143 whole entry): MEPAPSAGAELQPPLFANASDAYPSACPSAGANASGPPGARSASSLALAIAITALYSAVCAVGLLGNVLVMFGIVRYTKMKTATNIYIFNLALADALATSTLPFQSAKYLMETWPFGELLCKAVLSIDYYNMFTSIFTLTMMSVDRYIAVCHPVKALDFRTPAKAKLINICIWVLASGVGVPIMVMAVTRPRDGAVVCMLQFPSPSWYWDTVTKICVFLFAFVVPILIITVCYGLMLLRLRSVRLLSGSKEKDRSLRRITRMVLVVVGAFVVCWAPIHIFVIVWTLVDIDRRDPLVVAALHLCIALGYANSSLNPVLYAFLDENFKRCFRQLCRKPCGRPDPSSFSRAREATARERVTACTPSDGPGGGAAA
Chain of μ opioid receptor (P35372 whole entry): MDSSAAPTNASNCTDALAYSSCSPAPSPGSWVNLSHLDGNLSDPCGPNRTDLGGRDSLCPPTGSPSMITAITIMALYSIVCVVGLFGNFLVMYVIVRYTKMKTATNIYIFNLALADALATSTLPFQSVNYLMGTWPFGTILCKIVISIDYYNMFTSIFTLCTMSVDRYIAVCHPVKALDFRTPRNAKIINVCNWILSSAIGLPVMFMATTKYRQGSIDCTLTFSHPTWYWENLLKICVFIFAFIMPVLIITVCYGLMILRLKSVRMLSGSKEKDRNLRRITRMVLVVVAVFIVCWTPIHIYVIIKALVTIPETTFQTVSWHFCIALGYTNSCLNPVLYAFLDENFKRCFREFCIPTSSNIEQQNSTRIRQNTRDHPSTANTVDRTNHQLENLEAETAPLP

## CC(C)C[C@H](NC(=O)[C@H](CO[C@@H]1O[C@H](CO)[C@@H](O)[C@H](O)[C@H]1O)NC(=O)[C@H](CCCCN)NC(=O)[C@H](CC(C)C)NC(=O)[C@H](C)NC(=O)[C@H](CCCCN)NC(=O)[C@H](CCC(=O)O)NC(=O)C(C)(C)NC(=O)[C@H](CC(C)C)NC(=O)[C@H](CC(N)=O)NC(=O)[C@@H]1CCCN1C(=O)[C@H](CC(C)C)NC(=O)[C@H](Cc1ccccc1)NC(=O)CNC(=O)[C@H](NC(=O)[C@@H](N)Cc1ccc(O)cc1)[C@H](C)O)C(N)=O (relative stereo) [Glycopeptide 9, YtGFLPNLBEKALKS*L]
δ opioid receptor
  IC50: 6.15 nM
μ opioid receptor
  IC50: 90.8 nM
[1]
  A50 i.c.v.: 0.030 nmol
[2]
  Kd: 7 to 8 nM
[3]; solvent Bicelle A (anionic bicelles)
  % α-helicity by CD: 25%
[3]; solvent H2O
  % α-helicity by CD: >1%
[3]; solvent SDS micelles
  % α-helicity by CD: 24%
[3]; solvent TFE
  % α-helicity by CD: 18%
[4]; solvent Bicelle A
  % α-helicity by NMR: 44%
[4]; solvent H2O
  % α-helicity by NMR: 20%
[4]; solvent SDS micelles
  % α-helicity by NMR: 46%
[4]; solvent TFE
  % α-helicity by NMR: 30%
[5]
  BBB uptake: 0.390 microliters per min per gram of cortex
  blood brain barrier penetration (in words): efficiently cross the blood brain barrier; also recorded: much better BBB penetration rates; also recorded: best BBB penetration
